# In BindingDB's records for doi:10.3109/14756366.2013.804072 (University of Calgary, 2014):
# Legend:
# Assay in all cases: CA Inhibition Assay
# Settings in all cases: pH 7.5; 25 °C
# [1] = biological target: Carbonic anhydrase 14 (Homo sapiens, UniProt Q9ULX7)
# Procedure: (§1) An Applied Photophysics stopped-flow instrument has been used for assaying the CA catalysed CO2 hydration activity. […] The CO2 concentrations ranged from 1.7 to 17 mM for the determination of the kinetic parameters and inhibition constants. […] The uncatalyzed rates were determined in the same manner and subtracted from the total observed rates. Stock solutions of inhibitor (0.1 mM) were prepared in distilled deionized water and dilutions up to 0.01nM were done thereafter with distilled-deionized water.
# [2] = biological target: Carbonic anhydrase 1 (Homo sapiens, UniProt P00915)
# Procedure: as §1
# [3] = biological target: Carbonic anhydrase 12 (Homo sapiens, UniProt O43570)
# Procedure: as §1
# [4] = biological target: Carbonic anhydrase 13 (Homo sapiens, UniProt Q8N1Q1)
# Sequence of Carbonic anhydrase 13 (Q8N1Q1 whole entry): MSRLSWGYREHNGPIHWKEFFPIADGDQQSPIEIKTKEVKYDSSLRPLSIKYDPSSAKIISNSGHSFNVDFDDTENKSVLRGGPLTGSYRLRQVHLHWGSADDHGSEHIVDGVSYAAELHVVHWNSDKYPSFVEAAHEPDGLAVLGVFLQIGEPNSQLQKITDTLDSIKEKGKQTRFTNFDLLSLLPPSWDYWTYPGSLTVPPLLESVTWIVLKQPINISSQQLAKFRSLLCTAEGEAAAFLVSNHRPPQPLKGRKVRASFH
# Procedure: as §1
# [5] = biological target: Carbonic anhydrase 2 (Homo sapiens, UniProt P00918)
# Procedure: as §1
# [6] = biological target: Carbonic anhydrase 3 (Homo sapiens, UniProt P07451)
# Sequence of Carbonic anhydrase 3 (P07451 whole entry): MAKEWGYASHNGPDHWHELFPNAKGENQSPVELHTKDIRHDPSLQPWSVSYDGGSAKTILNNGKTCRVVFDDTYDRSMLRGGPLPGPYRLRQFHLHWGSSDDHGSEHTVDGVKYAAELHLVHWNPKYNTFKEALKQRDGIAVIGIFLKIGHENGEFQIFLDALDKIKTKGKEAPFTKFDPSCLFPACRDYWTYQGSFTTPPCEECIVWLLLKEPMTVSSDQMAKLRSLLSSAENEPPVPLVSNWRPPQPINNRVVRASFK
# Procedure: as §1
# [7] = biological target: Carbonic anhydrase 4 (Homo sapiens, UniProt P22748)
# Sequence of Carbonic anhydrase 4 (P22748 whole entry): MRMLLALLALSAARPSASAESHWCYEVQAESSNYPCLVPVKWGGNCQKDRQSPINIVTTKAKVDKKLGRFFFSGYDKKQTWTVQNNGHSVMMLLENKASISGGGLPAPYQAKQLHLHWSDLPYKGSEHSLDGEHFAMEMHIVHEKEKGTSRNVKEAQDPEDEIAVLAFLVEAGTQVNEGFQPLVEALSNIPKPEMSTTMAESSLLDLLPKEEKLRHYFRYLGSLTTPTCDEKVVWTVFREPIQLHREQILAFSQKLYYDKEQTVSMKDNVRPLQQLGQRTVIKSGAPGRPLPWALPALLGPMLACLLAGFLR
# Procedure: as §1
# [8] = biological target: Carbonic anhydrase 5A, mitochondrial (Homo sapiens, UniProt P35218)
# Sequence of Carbonic anhydrase 5A, mitochondrial (P35218 whole entry): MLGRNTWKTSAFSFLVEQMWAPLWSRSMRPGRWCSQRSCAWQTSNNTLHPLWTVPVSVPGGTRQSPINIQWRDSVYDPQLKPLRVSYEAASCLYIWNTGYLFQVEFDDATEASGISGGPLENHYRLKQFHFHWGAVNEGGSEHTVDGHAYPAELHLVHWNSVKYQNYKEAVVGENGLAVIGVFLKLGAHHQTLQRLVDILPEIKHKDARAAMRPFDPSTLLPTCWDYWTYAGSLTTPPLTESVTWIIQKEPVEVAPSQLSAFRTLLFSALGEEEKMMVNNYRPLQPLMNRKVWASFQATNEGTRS
# Procedure: as §1
# [9] = biological target: Carbonic anhydrase 5B, mitochondrial (Homo sapiens, UniProt Q9Y2D0)
# Sequence of Carbonic anhydrase 5B, mitochondrial (Q9Y2D0 whole entry): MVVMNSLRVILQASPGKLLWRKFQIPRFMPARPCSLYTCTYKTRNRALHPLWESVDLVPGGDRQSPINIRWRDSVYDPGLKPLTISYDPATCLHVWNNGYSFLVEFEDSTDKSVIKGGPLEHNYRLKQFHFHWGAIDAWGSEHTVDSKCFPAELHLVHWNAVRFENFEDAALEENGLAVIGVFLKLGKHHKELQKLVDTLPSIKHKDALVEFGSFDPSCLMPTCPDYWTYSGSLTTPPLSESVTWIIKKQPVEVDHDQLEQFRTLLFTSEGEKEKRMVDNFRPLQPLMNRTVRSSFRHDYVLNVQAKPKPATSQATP
# Procedure: as §1
# [10] = biological target: Carbonic anhydrase 6 (Homo sapiens, UniProt P23280)
# Sequence of Carbonic anhydrase 6 (P23280 whole entry): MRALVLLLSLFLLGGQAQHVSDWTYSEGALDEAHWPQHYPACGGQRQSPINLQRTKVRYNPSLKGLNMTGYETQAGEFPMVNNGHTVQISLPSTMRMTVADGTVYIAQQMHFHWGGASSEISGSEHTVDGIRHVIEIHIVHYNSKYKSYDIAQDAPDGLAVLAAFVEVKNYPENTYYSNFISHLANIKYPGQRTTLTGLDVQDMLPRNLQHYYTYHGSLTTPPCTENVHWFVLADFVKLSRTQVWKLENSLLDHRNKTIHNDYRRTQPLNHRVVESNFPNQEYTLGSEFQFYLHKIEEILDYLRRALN
# Procedure: as §1
# Sequence of Carbonic anhydrase 14 (Q9ULX7 whole entry): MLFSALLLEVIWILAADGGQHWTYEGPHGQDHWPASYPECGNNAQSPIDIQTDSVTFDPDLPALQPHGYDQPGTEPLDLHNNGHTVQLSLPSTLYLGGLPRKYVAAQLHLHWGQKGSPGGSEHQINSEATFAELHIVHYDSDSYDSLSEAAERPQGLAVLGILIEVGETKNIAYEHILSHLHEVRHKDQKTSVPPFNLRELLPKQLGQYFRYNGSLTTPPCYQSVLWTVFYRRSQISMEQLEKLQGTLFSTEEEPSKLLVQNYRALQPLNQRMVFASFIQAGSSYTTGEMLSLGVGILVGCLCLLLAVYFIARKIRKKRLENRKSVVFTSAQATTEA
# Sequence of Carbonic anhydrase 12 (O43570 whole entry): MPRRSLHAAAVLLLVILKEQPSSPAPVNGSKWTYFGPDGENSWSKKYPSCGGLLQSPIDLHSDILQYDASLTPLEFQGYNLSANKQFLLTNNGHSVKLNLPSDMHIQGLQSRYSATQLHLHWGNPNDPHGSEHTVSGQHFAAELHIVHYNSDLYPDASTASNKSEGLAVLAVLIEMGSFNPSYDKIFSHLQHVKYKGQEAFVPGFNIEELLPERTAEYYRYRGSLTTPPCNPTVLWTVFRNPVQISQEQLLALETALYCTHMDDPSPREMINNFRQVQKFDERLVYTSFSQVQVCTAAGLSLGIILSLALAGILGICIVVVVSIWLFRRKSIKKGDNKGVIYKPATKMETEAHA
# Sequence of Carbonic anhydrase 1 (P00915 whole entry): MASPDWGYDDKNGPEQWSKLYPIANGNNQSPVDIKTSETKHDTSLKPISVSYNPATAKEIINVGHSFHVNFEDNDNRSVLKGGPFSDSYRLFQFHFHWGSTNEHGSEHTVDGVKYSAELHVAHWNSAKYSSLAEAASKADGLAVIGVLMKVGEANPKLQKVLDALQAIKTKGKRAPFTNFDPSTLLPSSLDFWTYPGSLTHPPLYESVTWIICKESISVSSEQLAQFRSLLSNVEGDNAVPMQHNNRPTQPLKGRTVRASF
SMILES,Ki [1],Ki [2],Ki [3],Ki [4],Ki [5],Ki [6],Ki [7],Ki [8],Ki [9],Ki [10]
"NS(=O)(=O)c1cc(Cl)c(Cl)c(S(N)(=O)=O)c1 [Dichlorophenamide, DCP]",340 nM,–,–,–,–,–,–,–,–,–
CC1(C)[C@@H](O)C[C@H]2[C@](C)(O)[C@@H]3CCC4[C@@H](O)C3(C[C@@H](O)[C@@]21O)C[C@@]4(C)O (stereo partly specified) [Grayanotoxin III (GTX3)],1470 nM,8010 nM,2150 nM,690 nM,6130 nM,760 nM,510 nM,1140 nM,740 nM,860 nM
